Reference: patent US20100048462A1, “TRUNCATED PTH PEPTIDES WITH A CYCLIC CONFORMATION” (Zealand Pharma A/S, priority 2006, published 2010)
Bridge positions count the residues as written; N and C are the ends. Square brackets hold non-standard residues; d marks the D form. Peptide text beside a SMILES is read from it. hArg = N=C(N)NCCCC[C@H](N)C(=O)O; Ac5c = NC1(C(=O)O)CCCC1; Dab = NCC[C@H](N)C(=O)O; Aib = CC(C)(N)C(=O)O

Key:
Saos-2 PTH1R = target: T1, Saos-2 PTH1R (Homo sapiens, UniProt Q03431); assay: cAMP-efficacy assay in Saos-2 cells; assay type: cell-based; settings: for potency compared to linear / non-stabilized counterparts, in words / EC50 / pEC50 ± SEM: cAMP; for EC50 / pEC50 ± SEM: 100 μM IBMX, 37° C. 15 min, suffix of label = salt tested; for Emax ± SEM: relative effect to the control (SEQ ID NO: 32)
T1 construct: endogenous in cells; host or cells: Saos-2
T1 sequence (Q03431 27-593): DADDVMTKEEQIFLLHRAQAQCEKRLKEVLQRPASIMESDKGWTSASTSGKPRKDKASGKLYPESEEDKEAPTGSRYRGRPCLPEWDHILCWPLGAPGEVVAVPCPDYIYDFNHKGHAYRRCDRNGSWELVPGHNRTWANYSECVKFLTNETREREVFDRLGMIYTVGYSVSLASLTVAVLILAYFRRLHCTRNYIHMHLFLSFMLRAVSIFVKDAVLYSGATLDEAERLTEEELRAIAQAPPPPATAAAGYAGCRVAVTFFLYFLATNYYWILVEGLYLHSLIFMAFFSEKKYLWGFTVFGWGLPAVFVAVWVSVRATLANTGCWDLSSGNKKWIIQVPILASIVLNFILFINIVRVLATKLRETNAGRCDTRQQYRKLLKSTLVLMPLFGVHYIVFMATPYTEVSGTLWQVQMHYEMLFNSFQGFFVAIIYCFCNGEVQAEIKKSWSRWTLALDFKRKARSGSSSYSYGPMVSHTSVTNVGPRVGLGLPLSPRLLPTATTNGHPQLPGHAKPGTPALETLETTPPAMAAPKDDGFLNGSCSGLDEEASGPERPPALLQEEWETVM
Procedure, shortened: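 Saos-2 cells, grown two days after seeding at 50,000 cells/well, were exposed to peptide for 15 min at 37 °C in Tyrode's buffer with 0.1% BSA and 100 μM IBMX. After stopping with cold HCl, cAMP was measured by radioimmunoassay FlashPlate. EC50, pEC50, Hill slope and Emax came from a four-parameter sigmoidal fit.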

CYP2D6 = CYP2D6 (Homo sapiens, UniProt P10635); assay: CYP2D6 inhibition in pooled human liver microsomes; assay type: in vitro ADME; parameters: Pooled human liver microsomes (HLM, final concentration 0.05 mg protein/mL); tissue BD Biosciences 452161; host or cells: pooled human liver microsomes; settings: 10 μM compound, dextrorphan formation rate
Description: Stock solutions of the test compounds (1 mM) were prepared in 50% isopropanol or 20% DMSO. Pooled human liver microsomes (HLM, final concentration 0.05 mg protein/mL) were mixed with phosphate buffer (0.1 M potassium phosphate, pH 7.4), CYP2D6 substrate (dextrometrorphan, 5 μM final concentration) and test compound (10 μM), quinidine (0.5 μM) or vehicle (0.2% DMSO or 0.5% isopropanol). The mixture was preincubated for 5 min at 37° C. prior to initiation of the reaction addition of a NADPH regenerating mixture (Final concentration: 1.25 mM NADP^+, 3.3 mM Glucose-6-phosphate, 3.3 mM MgCL2 and 0.4 U/mL glucose-6-phosphat dehydrogenase). After 5 minutes the reaction was stopped by addition of 0.25 volume stop reagent (94% acetonitrile, 6% acetic acid). Each experiment was performed in duplicate or triplicate.
The quantification of CYP2D6 product (dextrorphan) was performed by LC/MS/MS. After centrifugation for 5 min at 10.000 g, 40 μL of the supernatant was injected onto a C8 RP-HPLC column (XterraMS, C8, […], 50×2.1 mm). Dextrorphan was eluted by a linear gradient from 0 to 90% acetonitrile in 0.1% formic acid over 4 min using a flow rate of 0.15 ml/min. The concentration of dextrorphan in the reaction mixture was estimated from the peak area of the MS/MS transition (m/z 258.1>199) using an external calibration curve (Table 8).
The CYP2D6 activity in HLM was calculated as the metabolite formation rate: […]
Where, v is the formation rate, [metabolite] is the detected concentration of dextrorphan (pmol/mL) at the time (t, min) and [protein] is the protein concentration (mg/mL) in the reaction mixture. The influence of the test compounds on the CYP2D6 activity was calculated as % of the activity measured when incubated with the vehicle. The effect of CYP2D6 inhibitor (quinidine) was included as inhibition control within each batch analysis. A reduction in CYP2D6 activity to less than 70% of the vehicle control was considered significant.

CYP2D6, sequence (P10635 whole entry): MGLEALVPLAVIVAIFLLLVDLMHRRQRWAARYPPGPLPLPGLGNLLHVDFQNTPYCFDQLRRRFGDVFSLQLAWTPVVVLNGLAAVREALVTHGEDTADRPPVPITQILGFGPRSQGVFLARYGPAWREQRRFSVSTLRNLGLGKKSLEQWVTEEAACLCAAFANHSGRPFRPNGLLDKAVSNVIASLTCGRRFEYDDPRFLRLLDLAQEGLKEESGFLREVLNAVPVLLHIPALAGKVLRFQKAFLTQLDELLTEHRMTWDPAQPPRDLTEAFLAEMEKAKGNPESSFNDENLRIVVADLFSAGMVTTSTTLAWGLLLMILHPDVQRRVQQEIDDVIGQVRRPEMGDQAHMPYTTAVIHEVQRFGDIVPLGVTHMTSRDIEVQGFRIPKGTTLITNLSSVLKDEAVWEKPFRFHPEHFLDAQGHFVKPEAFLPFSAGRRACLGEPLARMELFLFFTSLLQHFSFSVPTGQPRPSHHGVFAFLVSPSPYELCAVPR

## CC[C@H](C)[C@H](NC(=O)[C@H](CCC(=O)O)NC(=O)C(C)(C)NC(=O)[C@@H](NC(=O)C1(N)CCCC1)C(C)C)C(=O)N[C@@H](CCC(N)=O)C(=O)N[C@@H](CC(C)C)C(=O)N[C@@H](CCSC)C(=O)N[C@@H](Cc1c[nH]cn1)C(=O)N[C@@H](CC(N)=O)C(=O)N[C@@H](CC(C)C)C(=O)NCC(=O)N[C@H]1CCCCNC(=O)C[C@@H](C(N)=O)NC(=O)[C@H](CC(N)=O)NC(=O)[C@H](CC(C)C)NC(=O)[C@H](Cc2c[nH]cn2)NC1=O [SEQ ID NO: 34] (H-[Ac5c]V[Aib]EIQLMHNLGKHLND-NH2; lactam 13-17)
Saos-2 PTH1R
  potency compared to linear / non-stabilized counterparts, in words: significantly higher potency
  EC50: 0.214 µM
  Emax ± SEM: 1.12 ± 0.09
Saos-2 PTH1R; listed as 34
  potency compared to linear / non-stabilized counterparts, in words: increased potencies
Saos-2 PTH1R; listed as SEQ ID NO:34
  potency compared to linear / non-stabilized counterparts, in words: strikingly higher potency
CYP2D6
  CYP2D6 activity (% of vehicle): 107 % of vehicle

## CC[C@H](C)[C@H](NC(=O)[C@H](CCC(=O)O)NC(=O)[C@H](CO)NC(=O)[C@@H](NC(=O)[C@@H](N)CO)C(C)C)C(=O)N[C@@H](CCC(N)=O)C(=O)N[C@@H](CC(C)C)C(=O)N[C@@H](CCSC)C(=O)N[C@@H](Cc1c[nH]cn1)C(=O)N[C@@H](CC(N)=O)C(=O)N[C@@H](CC(C)C)C(=O)NCC(=O)N[C@@H](CCCCN)C(=O)N[C@@H](Cc1c[nH]cn1)C(=O)N[C@@H](CC(C)C)C(=O)N[C@@H](CC(N)=O)C(=O)N[C@@H](CO)C(N)=O [SEQ ID NO: 37, reference compound]
Saos-2 PTH1R
  pEC50 ± SEM: inactive
CYP2D6
  CYP2D6 activity (% of vehicle): 41 % of vehicle

## CC[C@H](C)[C@H](NC(=O)[C@H](CCC(=O)O)NC(=O)C(C)(C)NC(=O)[C@@H](NC(=O)C1(N)CCCC1)C(C)C)C(=O)N[C@@H](CCC(N)=O)C(=O)N[C@@H](CC(C)C)C(=O)N[C@@H](CCSC)C(=O)N[C@@H](Cc1c[nH]cn1)C(=O)N[C@@H](CCC(=O)O)C(=O)N[C@@H](CCCCNC(=N)N)C(=O)N[C@@H](C)C(=O)N[C@H]1CCCCNC(=O)C[C@@H](C(N)=O)NC(=O)[C@H](CC(N)=O)NC(=O)[C@H](CC(C)C)NC(=O)[C@H](Cc2c[nH]c3ccccc23)NC1=O [SEQ ID NO: 24, H-Ac5c-Val-Aib-Glu-Ile-Gln-Leu-Met-His-Glu-Har-Ala-Lys( )-Trp-Leu-Asn-Asp( )-NH2] (H-[Ac5c]V[Aib]EIQLMHE[hArg]AKWLND-NH2; lactam 13-17)
Saos-2 PTH1R
  EC50: 0.126 µM
  Emax ± SEM: 1.4
CYP2D6
  CYP2D6 activity (% of vehicle): 83 % of vehicle

## CC[C@H](C)[C@H](NC(=O)[C@H](CCC(=O)O)NC(=O)C(C)(C)NC(=O)[C@@H](NC(=O)C1(N)CCCC1)C(C)C)C(=O)N[C@@H](CCC(N)=O)C(=O)N[C@@H](CC(C)C)C(=O)N[C@@H](CC(C)C)C(=O)N[C@@H](Cc1c[nH]cn1)C(=O)N[C@@H](CCC(N)=O)C(=O)N[C@@H](CCCCNC(=N)N)C(=O)N[C@@H](C)C(=O)N[C@H]1CCNC(=O)C[C@@H](C(N)=O)NC(=O)[C@H](CC(N)=O)NC(=O)[C@H](CC(C)C)NC(=O)[C@H](Cc2c[nH]c3ccccc23)NC1=O [SEQ ID NO: 41, H-Ac5c-Val-Aib-Glu-Ile-Gln-Leu-Leu-His-Gln-Har-Ala-Dab( )-Trp-Leu-Asn-Asp( )-NH2] (H-[Ac5c]V[Aib]EIQLLHQ[hArg]A[Dab]WLND-NH2; lactam 13-17 (inferred))
Saos-2 PTH1R
  EC50: 0.0646 µM
  Emax ± SEM: 0.99 ± 0.02
CYP2D6
  CYP2D6 activity (% of vehicle): 82 % of vehicle

## CC[C@H](C)[C@H](NC(=O)[C@H](CCC(=O)O)NC(=O)C(C)(C)NC(=O)[C@@H](NC(=O)C1(N)CCCC1)C(C)C)C(=O)N[C@@H](CCC(=O)O)C(=O)N[C@@H](CC(C)C)C(=O)N[C@@H](CCSC)C(=O)N[C@@H](Cc1c[nH]cn1)C(=O)N[C@@H](CCC(N)=O)C(=O)N[C@@H](CCCCNC(=N)N)C(=O)N[C@@H](C)C(=O)N[C@H]1CCCCNC(=O)C[C@@H](C(N)=O)NC(=O)[C@H](CC(N)=O)NC(=O)[C@H](CC(C)C)NC(=O)[C@H](Cc2c[nH]c3ccccc23)NC1=O [SEQ ID NO: 18, H-Ac5c-Val-Aib-Glu-IIe-Glu-Leu-Met-His-Gln-Har-Ala-Lys( )-Trp-Leu-Asn-Asp( )-NH2] (H-[Ac5c]V[Aib]EIELMHQ[hArg]AKWLND-NH2; lactam 13-17)
Saos-2 PTH1R
  EC50: 0.0513 µM
  Emax ± SEM: 1.24 ± 0.29
CYP2D6
  CYP2D6 activity (% of vehicle): 89 % of vehicle

## CC[C@H](C)[C@H](NC(=O)[C@H](CCC(=O)O)NC(=O)[C@H](CO)NC(=O)[C@@H](NC(=O)[C@@H](N)CO)C(C)C)C(=O)N[C@@H](CCC(N)=O)C(=O)N[C@@H](CC(C)C)C(=O)N[C@@H](CCSC)C(=O)N[C@@H](Cc1c[nH]cn1)C(=O)N[C@@H](CC(N)=O)C(=O)N[C@@H](CC(C)C)C(=O)NCC(=O)N[C@H]1CCCCNC(=O)C[C@@H](C(N)=O)NC(=O)[C@H](CC(N)=O)NC(=O)[C@H](CC(C)C)NC(=O)[C@H](Cc2c[nH]cn2)NC1=O [SEQ ID NO: 36]
Saos-2 PTH1R
  pEC50 ± SEM: inactive
CYP2D6
  CYP2D6 activity (% of vehicle): 79 % of vehicle

## CC[C@H](C)[C@H](NC(=O)[C@H](CCC(=O)O)NC(=O)C(C)(C)NC(=O)[C@@H](NC(=O)C1(N)CCCC1)C(C)C)C(=O)N[C@@H](CCC(N)=O)C(=O)N[C@@H](CC(C)C)C(=O)N[C@H](C(=O)N[C@@H](Cc1c[nH]cn1)C(=O)N[C@@H](CCC(N)=O)C(=O)N[C@@H](CCCCNC(=N)N)C(=O)N[C@@H](C)C(=O)N[C@H]1CCCCNC(=O)C[C@@H](C(N)=O)NC(=O)[C@H](CC(N)=O)NC(=O)[C@H](CC(C)C)NC(=O)[C@H](Cc2c[nH]c3ccccc23)NC1=O)C(C)C [SEQ ID NO: 21, H-Ac5c-Val-Aib-Glu-Ile-Gln-Leu-Val-His-Gln-Har-Ala-Lys( )-Trp-Leu-Asn-Asp( )-NH2] (H-[Ac5c]V[Aib]EIQLVHQ[hArg]AKWLND-NH2; lactam 13-17)
Saos-2 PTH1R
  EC50: 0.151 µM
  Emax ± SEM: 1.40 ± 0.27
CYP2D6
  CYP2D6 activity (% of vehicle): 92 % of vehicle

## CC[C@H](C)[C@H](NC(=O)[C@H](CCC(=O)O)NC(=O)C(C)(C)NC(=O)[C@@H](NC(=O)C1(N)CCCC1)C(C)C)C(=O)N[C@@H](CCC(N)=O)C(=O)N[C@@H](CC(C)C)C(=O)N[C@@H](CCSC)C(=O)N[C@@H](Cc1c[nH]cn1)C(=O)N[C@@H](CC(N)=O)C(=O)N[C@@H](CC(C)C)C(=O)NCC(=O)N[C@@H](CCCCN)C(=O)N[C@@H](Cc1c[nH]cn1)C(=O)N[C@@H](CC(C)C)C(=O)N[C@@H](CC(N)=O)C(=O)N[C@@H](CC(=O)O)C(N)=O [SEQ ID NO: 1] (H-[Ac5c]V[Aib]EIQLMHNLGKHLND-NH2)
Saos-2 PTH1R
  pEC50 ± SEM: inactive
CYP2D6
  CYP2D6 activity (% of vehicle): 57 % of vehicle

## CC[C@H](C)[C@H](NC(=O)[C@H](CCC(=O)O)NC(=O)C(C)(C)NC(=O)[C@@H](NC(=O)C1(N)CCCC1)C(C)C)C(=O)N[C@@H](CCC(N)=O)C(=O)N[C@@H](CC(C)C)C(=O)N[C@@H](CCSC)C(=O)N[C@@H](Cc1c[nH]cn1)C(=O)N[C@@H](CCC(N)=O)C(=O)N[C@@H](CCCCNC(=N)N)C(=O)N[C@@H](C)C(=O)N[C@H]1CSSC[C@@H](C(N)=O)NC(=O)[C@H](CC(N)=O)NC(=O)[C@H](CC(C)C)NC(=O)[C@H](Cc2c[nH]c3ccccc23)NC1=O [SEQ ID NO: 7, H-Ac5c-Val-Aib-Glu-Ile-Gln-Leu-Met-His-Gln-Har-Ala-Cys( )-Trp-Leu-Asn-Cys( )-NH2] (H-[Ac5c]V[Aib]EIQLMHQ[hArg]ACWLNC-NH2; disulfide 13-17)
Saos-2 PTH1R
  EC50: 0.0501 µM
  Emax ± SEM: 1.2
CYP2D6
  CYP2D6 activity (% of vehicle): 85 % of vehicle
